According to US9717709B2, “Substituted pyrazoles as heat shock transcription factor activators” (Duke University, priority 2010, dated 2017):
Each block holds one compound with its values, some of them ahead of it.

Assays:
Hsp90 = assay: competitive binding assay in vitro using biotinylated geldanamycin (GD-B)
Text: Many pharmacological inhibitors of Hsp90 such as geldanamycin and 17-AAG target the amino-terminal ATP binding pocket of Hsp90, thereby inhibiting its chaperone function. To test whether HSF1A has affinity for the Hsp90 ATP-binding pocket, we performed competitive binding assays in vitro using a biotinylated geldanamycin (GD-B) molecule. […] Because other small molecule inhibitors of Hsp90, including celastrol, novobiocin, and EGCG, are thought to bind Hsp90 at the carboxy-terminus Amolins, M and Blagg, B, Mini Rev Med Chem. 2009 9, 140-152, we ascertained whether HSF1A could bind to Hsp90 at a region outside of the ATPbinding pocket. To assay for HSF1A binding to Hsp90, we generated an HSF1A-biotin conjugate (HSF1A-B)) and assayed the ability of HSF1A-B to interact with Hsp90.

mouse model of ALS = conditions: Kieran et al., Nature Medicine 2004; cited from earlier work

competition with GD-B for Hsp90 binding (Hsp90; at 1 mM and 10 mM): able to compete
Structure (SMILES): C=CCNC1=C2C[C@@H](C)C[C@H](OC)[C@H](O)[C@@H](C)/C=C(\C)[C@H](OC(N)=O)[C@@H](OC)/C=C\C=C(/C)C(=O)NC(=CC1=O)C2=O [17-AAG]

competition with GD-B for Hsp90 binding (Hsp90; concentrations 100-fold higher than GD-B): unable to compete
Structure (SMILES): CCc1ccc(S(=O)(=O)Nc2cc(-c3cccs3)nn2-c2ccccc2)cc1 [HSF1A]

Structure (SMILES): [O-][n+]1cccc(/C(Cl)=N/OC[C@H](O)CN2CCCCC2)c1 [arimoclomal]
disease progression (mouse model of ALS): significantly delays disease progression
